Values joined by “and” are separate entries in the source; they are usually repeats but may differ in a detail not shown here. Equal entries are not always repeated.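 Cells were grown in 96-well plates and exposed to each compound for 48 hours at five concentrations; endpoints were interpolated linearly between bracketing concentrations, or set to the highest concentration if not reached. At the GI50, growth is halved. Definition used: TGI = concentration required for complete inhibition of growth.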
Tests used:
Experiment in all cases: NCI tumour cell line growth inhibition, 48 h
XF 498 CNS = test system: XF 498 CNS
DMS 273 small cell lung = test system: DMS 273 small cell lung
DLD-1 colon = test system: DLD-1 colon
KM20L2 colon = test system: KM20L2 colon
LXFL 529 NSCLC = test system: LXFL 529 NSCLC
HOP-18 NSCLC = test system: HOP-18 NSCLC
DMS 114 small cell lung = test system: DMS 114 small cell lung
RXF-631 renal = test system: RXF-631 renal
P388/ADR leukemia = test system: P388/ADR leukemia
SN12K1 renal = test system: SN12K1 renal
MDA-N = test system: MDA-N

SMILES | TGI (XF 498 CNS) | TGI (DMS 273 small cell lung) | TGI (DLD-1 colon) | TGI (KM20L2 colon) | TGI (LXFL 529 NSCLC) | TGI (HOP-18 NSCLC) | TGI (DMS 114 small cell lung) | TGI (RXF-631 renal) | also measured
NC(=O)c1c[se]c(C2OC(COP(=O)(O)CP(=O)(O)OCC3OC(n4cnc5c(N)ncnc54)C(O)C3O)C(O)C2O)n1 (stereo not drawn) | > 100 µM | > 100 µM | > 100 µM | > 100 µM | > 100 µM | > 100 µM | > 100 µM |  | 
CC[P+]1(CC)CCCC1 | > 100 µM | > 100 µM | > 100 µM | > 100 µM | > 100 µM | > 100 µM | > 100 µM |  | 
COC(=O)C1(F)C(=O)NC(=O)NC1OC (stereo not drawn) | > 100 µM | > 100 µM | > 100 µM | > 100 µM |  | > 100 µM | > 100 µM |  | 
COc1cc([C@H]2c3[nH]c4ccccc4c3C[C@H]3COC(=O)N32)cc(OC)c1O | 43 µM | 44.2 µM | > 100 µM |  |  | > 100 µM |  |  | 
COc1nc2c(c(O)c(C)c(=O)n2OC2OC(COC(C)=O)C(OC(C)=O)C(OC(C)=O)C2OC(C)=O)c(=O)n1C (stereo not drawn) | > 100 µM | > 100 µM | > 100 µM | > 100 µM | > 100 µM |  | > 100 µM | > 100 µM | 
CC1(C)CC(=O)c2c(oc3cc(O)c(O)cc23)C1 |  | > 100 µM | 53.9 µM | > 100 µM | 91.8 µM | > 100 µM | 32.5 µM | > 100 µM | 
c1ccc(OCCSCCCCCCCCCCSCCOc2ccccc2)cc1 |  |  |  | > 100 µM | > 100 µM | > 100 µM | > 100 µM | > 100 µM | 
CC(C)(CO)N=Cc1ccccc1[O-].CC(C)(CO)N=Cc1ccccc1[O-].[Co+2] | > 100 µM | > 100 µM | > 100 µM | > 100 µM | > 100 µM | > 100 µM | > 100 µM |  | GI50 (XF 498 CNS): > 100 µM; GI50 (DMS 273 small cell lung): > 85.9 µM; GI50 (DLD-1 colon): 26.6 µM; GI50 (KM20L2 colon): 61.9 µM; GI50 (LXFL 529 NSCLC): 19.2 µM; GI50 (HOP-18 NSCLC): 29.4 µM; GI50 (DMS 114 small cell lung): 18.7 µM
CC[C@@]1(O)C(=O)OCc2c1cc1n(c2=O)Cc2cc3c(N)cccc3nc2-1 | 1.05 µM | 0.111 µM | > 51.7 µM | 4.02 µM | 2.98 µM | 7.64 µM | 0.121 µM | 1.69 µM | TGI (P388/ADR leukemia): 0.375 µM; TGI (SN12K1 renal): 1.34 µM; GI50 (MDA-N): 0.333 µM; TGI (MDA-N): > 33.8 µM
O=C(O)C1C2C=CC(O2)C1C(=O)Nc1ncccn1 (stereo not drawn) |  |  |  |  |  |  |  |  | TGI (MDA-N): > 100 µM
CCCCCCCCCC(=O)Oc1cccc2onc(C)c12 |  | > 100 µM | > 100 µM | > 100 µM | > 100 µM | > 100 µM | > 100 µM | > 100 µM | 
Cc1ccc(/C=C2\CNC/C(=C\c3ccc(C)cc3)C2=O)cc1 | 5.16 µM | 2.49 µM | 1.2 µM and 2.32 µM | 3.02 µM and 3.14 µM | 2.71 µM and 2.17 µM |  | 4.98 µM |  | GI50 (DLD-1 colon): 0.916 µM; TGI (MDA-N): 3.53 µM; GI50 (LXFL 529 NSCLC): 0.819 µM
CC1=C(C(=O)CC(=O)C(=O)NC2C3CC4CC(C3)CC2C4)Sc2ccccc2N1 (stereo not drawn) | > 100 µM | > 100 µM | > 100 µM | > 100 µM | > 100 µM | > 100 µM | > 31.6 µM |  | 
Cc1ccccc1NC(=O)C(=O)CC(=O)c1ccc([N+](=O)[O-])cc1 | > 100 µM | > 100 µM | > 100 µM | > 100 µM | > 100 µM | > 100 µM | > 100 µM | > 100 µM | 
CCOC(=O)C[C@@]12CCCNC1(C)CCc1ccccc12 (stereo partly drawn) | > 100 µM | > 100 µM | > 100 µM | > 100 µM |  | > 100 µM | > 100 µM |  | 
C/C(=N/O)c1ccc2c(c1)C(=NO)c1cc(/C(C)=N/O)ccc1-2 | 36.2 µM | > 100 µM | 52.8 µM | 32.3 µM | 29 µM | 27.4 µM | 53.7 µM |  | 
O=C1C(c2ccccc2)=C(c2ccccc2)[C@H](c2ccccc2)[C@]1(Cc1nnn(-c2ccc([N+](=O)[O-])cc2)c1N1CCOCC1)c1ccccc1 | 26.5 µM | > 37.5 µM | > 37.5 µM | > 37.5 µM | > 37.5 µM | > 37.5 µM | > 37.5 µM | > 37.5 µM | 
Cc1cc([N+](=O)[O-])c(S(=O)(=O)c2ccccc2)c([N+](=O)[O-])c1 | 27.6 µM | 32.1 µM | 17 µM | 37.3 µM | 10.6 µM | 29.6 µM | 9.63 µM | > 100 µM | 
O=C(O)Cn1ccnc1[N+](=O)[O-] |  |  |  |  |  |  |  |  | TGI (MDA-N): > 100 µM

SMILES | TGI (XF 498 CNS) | TGI (DMS 273 small cell lung) | TGI (DLD-1 colon) | TGI (KM20L2 colon) | TGI (LXFL 529 NSCLC) | TGI (HOP-18 NSCLC) | TGI (DMS 114 small cell lung) | TGI (RXF-631 renal) | also measured
CC(=O)[CH-]C(=O)c1ccccc1.CC(=O)[CH-]C(=O)c1ccccc1.[CH2-]CCC.[CH2-]CCC.[Sn+4] |  |  |  | 3.94 µM | 0.627 µM |  |  |  | GI50 (KM20L2 colon): 1.99 µM; GI50 (LXFL 529 NSCLC): 0.198 µM
COc1cc(O)c(C(C)=O)c(O)c1 |  |  |  |  |  |  |  |  | TGI (MDA-N): > 100 µM
COc1ccc(CC2=NCCc3cc(OC)c(OC)cc32)cc1Br | 53.1 µM | 33.7 µM | > 100 µM | 99.3 µM | > 100 µM | > 100 µM | 48.3 µM |  | 
COC(=O)c1cc2c3c(ccc2[nH]1)N(C(=O)c1cc2c4c(ccc2[nH]1)N(C(=O)c1cc2c5c(ccc2[nH]1)N(C(N)=O)CC5)CC4)CC3 |  | > 100 µM | > 100 µM | > 100 µM |  | > 100 µM | 57.3 µM |  | 
C/C(=N/NC(=O)CC(=O)N(C(=O)c1ccccc1Cl)c1ccc(C)cc1)c1cc2ccccc2oc1=O | > 100 µM | > 100 µM | > 100 µM | > 100 µM | > 100 µM | > 100 µM | > 100 µM | > 100 µM | 
NS(=O)(=O)c1ccc(NC(=O)c2cccn3c(=O)c4ccccc4nc23)cc1 | > 100 µM |  | > 100 µM | > 100 µM | > 100 µM | > 100 µM | > 100 µM | > 100 µM | 
C[N+](C)=c1nc(N2CCOCC2)ss1 | > 100 µM | > 100 µM |  |  | > 100 µM |  |  |  | 
CC(=O)OCCC(O[Si](c1ccccc1)(c1ccccc1)C(C)(C)C)C(C)(C)O (stereo not drawn) | 96.8 µM | > 100 µM |  | > 100 µM | > 100 µM | 91.4 µM | 53.6 µM | > 100 µM | 
O=C(O)[C@@H]1CCCC[C@@H]1C(=O)N(C1CCCCC1)C1CCCCC1 |  | > 100 µM | > 100 µM | > 100 µM | > 100 µM |  | > 100 µM | > 100 µM | 
O=C(O)C1C(C(=O)O)C2(Cl)C(Cl)=C(Cl)C1(Cl)C2(Cl)Cl.[Cd] (stereo not drawn) |  |  |  |  |  |  |  |  | GI50 (MDA-N): 8.5 µM; TGI (MDA-N): 22.6 µM
O=[N+]([O-])C1C2C=CC(C2)[C@H]1c1ccc(Cl)cc1Cl (stereo partly drawn) | > 100 µM | > 100 µM | > 100 µM |  | > 100 µM |  |  |  | 
CC(c1ccccc1)N1CC(C)(c2ccccc2)N(O)C(c2ccccc2)C1C (stereo not drawn) |  | > 100 µM | > 100 µM | 44.7 µM | 37.3 µM | 51.2 µM | 45.1 µM | 82 µM | 
COc1cc2cccc(N=Cc3c(Br)ccc(OC)c3OC(C)C)c2cc1OC | > 100 µM |  | 82.2 µM | > 100 µM | > 100 µM |  | 63.5 µM |  | 
c1ccc(NC[Si]23OCCN(CCO2)CCO3)cc1 |  | > 100 µM | > 100 µM |  | > 100 µM | > 100 µM | > 100 µM | > 100 µM | 
COc1ccc(C2NCCc3c2[nH]c2ccccc32)cc1 (stereo not drawn) | > 100 µM |  | > 100 µM | > 100 µM | > 100 µM | > 100 µM |  | > 100 µM | 
CC(C)(C)[Si](C)(C)OCC1OC(n2cnc3c(N)ncnc32)C(O)C1O (stereo not drawn) |  |  |  |  |  |  |  |  | TGI (MDA-N): > 100 µM
C=CC1=CC(C)C[C@]1(O)C(=O)OC (stereo partly drawn) |  |  |  | > 100 µM |  | > 100 µM |  |  | GI50 (RXF-631 renal): > 100 µM; GI50 (XF 498 CNS): > 100 µM; GI50 (DMS 273 small cell lung): > 100 µM; GI50 (DLD-1 colon): > 100 µM; GI50 (LXFL 529 NSCLC): > 100 µM; GI50 (DMS 114 small cell lung): > 100 µM
COc1ccc2[nH]c3c(=O)[nH]ncc3c2c1 |  | > 100 µM | > 100 µM |  | > 100 µM | > 100 µM | > 100 µM |  | 

Source: PubChem BioAssay (NCI)
